“And” between values parts separate entries of the source, which are not always exact repeats. Equal entries are not always repeated.
Experiment: Plasma PF-06873600 pharmacokinetics (LC/MS-MS, noncompartmental analysis)
Assay type: in vivo, human
Protocol: Plasma samples were analyzed for PF-06873600 concentrations at Q2 Solutions using a validated analytic assay in compliance with Pfizer standard operating procedures. PF-06873600 samples were assayed by a validated LC/MS-MS using positive ionization mode. PK parameters were calculated using noncompartmental analysis of plasma concentration–time data.

[1] = Cycle 1 Day 15, Part 1A 1 mg BID IR
[2] = Cycle 1 Day 15, Part 1A 2 mg BID IR
[3] = Cycle 1 Day 15, Part 1A 5 mg BID IR
[4] = Cycle 1 Day 15, Part 1A 10 mg BID IR
[5] = Cycle 1 Day 15, Part 1A 25 mg BID Biomarker IR
[6] = Cycle 1 Day 15, Part 1A 25 mg BID IR
[7] = Cycle 1 Day 15, Part 1A 35 mg BID IR
[8] = Cycle 1 Day 15, Part 1A 35 mg BID Intm 5/2 IR
[9] = Cycle 1 Day 15, Part 1A 50 mg BID IR
[10] = Cycle 1 Day 15, Part 1B 25 mg BID +Ful IR
[11] = Cycle 1 Day 15, Part 1B 25 mg BID +Let IR
[12] = Cycle 1 Day 15, Part 1C MR 30 mg BID long duration
[13] = Day -4, Part 1C single dose 20 mg MR Long Duration
[14] = Day -7, Part 1C single dose 20 mg MR Short Duration

C[C@@]1(O)CCC[C@H]1n1c(=O)c(C(F)F)cc2cnc(NC3CCN(S(C)(=O)=O)CC3)nc21 [PF-06873600]
Cmax, individual value(s) [1]: 10.9 ng/mL
Cmin, individual value(s) [1]: 0.000 ng/mL
Rac (observed accumulation ratio based on AUC), individual value(s) [1]: 1.21
Tmax, median (range) [1]: 1.00 h
AUCtau, individual value(s) [2]: 51.4 ng·h/mL and 86.9 ng·h/mL
CL/F, individual value(s) [2]: 23.0 L/h and 38.9 L/h
Cmax, individual value(s) [2]: 18.2 ng/mL and 45.4 ng/mL
Rac (observed accumulation ratio based on AUC), individual value(s) [2]: 1.16
Tmax, median (range) [2]: 1.25 h
Vz/F, individual value(s) [2]: 53.3 L and 98.4 L
t1/2, individual value(s) [2]: 5800 s and 6300 s
Cmin, individual value(s) (Cycle 1 Day 15, Part 1A 2 mg BID IR (both patients 0.000)): 0.000 ng/mL
AUCtau, individual value(s) [3]: 150 ng·h/mL and 483 ng·h/mL
CL/F, individual value(s) [3]: 10.4 L/h and 33.2 L/h
Cmax, individual value(s) [3]: 46.3 ng/mL and 126 ng/mL
Cmin, individual value(s) [3]: 1.19 ng/mL and 23.6 ng/mL
Rac (observed accumulation ratio based on AUC), individual value(s) [3]: 1.53
Tmax, median (range) [3]: 1.20 h
Vz/F, individual value(s) [3]: 124 L
t1/2, individual value(s) [3]: 9320 s
AUCtau, geometric mean (%CV) [4]: 448.8 (25) ng.h/mL
CL/F, geometric mean (%CV) [4]: 22.28 (24) L/h
Cmax, geometric mean (%CV) [4]: 124.3 (29) ng/mL
Cmin, geometric mean (%CV) [4]: 5.499 (5) ng/mL
Rac (observed accumulation ratio based on AUC), geometric mean (%CV) [4]: 0.7263
Tmax, median (range) [4]: 2.00 h
Vz/F, geometric mean (%CV) [4]: 72.17 (19) L
t1/2, arithmetic mean±standard deviation [4]: 2.250 h
AUCtau, geometric mean (%CV) [5]: 1010 (40) ng.h/mL
CL/F, geometric mean (%CV) [5]: 24.76 (40) L/h
Cmax, geometric mean (%CV) [5]: 246.4 (40) ng/mL
Cmin, geometric mean (%CV) [5]: 21.28 (130) ng/mL
Rac (observed accumulation ratio based on AUC), geometric mean (%CV) [5]: 1.254 (49)
Tmax, median (range) [5]: 1.92 h
Vz/F, geometric mean (%CV) [5]: 99.62 (35) L
t1/2, arithmetic mean±standard deviation [5]: 2.797 h
AUCtau, geometric mean (%CV) [6]: 1695 (34) ng.h/mL
CL/F, geometric mean (%CV) [6]: 14.78 (34) L/h
Cmax, geometric mean (%CV) [6]: 382.4 (33) ng/mL
Cmin, geometric mean (%CV) [6]: 37.63 ng/mL
Rac (observed accumulation ratio based on AUC), geometric mean (%CV) [6]: 1.045 (17)
Tmax, median (range) [6]: 1.95 h
Vz/F, geometric mean (%CV) [6]: 57.62 (29) L
t1/2, arithmetic mean±standard deviation [6]: 2.733 h
AUCtau, individual value(s) [7]: 2060 ng·h/mL and 2360 ng·h/mL
CL/F, individual value(s) [7]: 14.8 L/h and 17.0 L/h
Cmax, individual value(s) [7]: 362 ng/mL and 399 ng/mL
Cmin, individual value(s) [7]: 52.1 ng/mL and 80.4 ng/mL
Rac (observed accumulation ratio based on AUC), individual value(s) [7]: 0.822
Tmax, median (range) [7]: 2.01 h
Vz/F, individual value(s) [7]: 70.8 L
t1/2, individual value(s) [7]: 11900 s
AUCtau, geometric mean (%CV) [8]: 1372 (39) ng.h/mL
CL/F, geometric mean (%CV) [8]: 25.54 (39) L/h
Cmax, geometric mean (%CV) [8]: 290.2 (29) ng/mL
Cmin, geometric mean (%CV) [8]: 25.56 (8) ng/mL
Rac (observed accumulation ratio based on AUC), geometric mean (%CV) [8]: 0.8893
Tmax, median (range) [8]: 2.23 h
Vz/F, geometric mean (%CV) [8]: 99.03 (48) L
t1/2, arithmetic mean±standard deviation [8]: 2.752 h
AUCtau, geometric mean (%CV) [9]: 1607 (34) ng.h/mL
CL/F, geometric mean (%CV) [9]: 21.99 (44) L/h
Cmax, geometric mean (%CV) [9]: 335.2 (22) ng/mL
Cmin, geometric mean (%CV) [9]: 25.63 ng/mL
Rac (observed accumulation ratio based on AUC), geometric mean (%CV) [9]: 1.260 (25)
Tmax, median (range) [9]: 1.98 h
Vz/F, geometric mean (%CV) [9]: 75.41 (17) L
t1/2, arithmetic mean±standard deviation [9]: 2.535 h
AUCtau, geometric mean (%CV) [10]: 1229 (41) ng.h/mL
CL/F, geometric mean (%CV) [10]: 20.35 (41) L/h
Cmax, geometric mean (%CV) [10]: 305.0 (35) ng/mL
Cmin, geometric mean (%CV) [10]: 21.25 ng/mL
Rac (observed accumulation ratio based on AUC), geometric mean (%CV) [10]: 1.191 (29)
Tmax, median (range) [10]: 1.88 h
Vz/F, geometric mean (%CV) [10]: 75.71 (32) L
t1/2, arithmetic mean±standard deviation [10]: 2.508 h
AUCtau, geometric mean (%CV) [11]: 1273 (50) ng.h/mL
CL/F, geometric mean (%CV) [11]: 19.63 (49) L/h
Cmax, geometric mean (%CV) [11]: 276.5 (31) ng/mL
Cmin, geometric mean (%CV) [11]: 13.33 ng/mL
Rac (observed accumulation ratio based on AUC), geometric mean (%CV) [11]: 1.268 (35)
Tmax, median (range) [11]: 2.08 h
Vz/F, geometric mean (%CV) [11]: 80.33 (27) L
t1/2, arithmetic mean±standard deviation [11]: 2.468 h
AUCtau, geometric mean (%CV) [12]: 636.8 (59) ng.h/mL
CL/F, geometric mean (%CV) [12]: 47.08 (59) L/h
Cmax, geometric mean (%CV) [12]: 82.1 ng/mL
Cmin, geometric mean (%CV) [12]: 45.78 (49) ng/mL
Tmax, median (range) [12]: 2.99 (0.000–4.00) h
AUCinf, individual value(s) [13]: 584 ng·h/mL and 713 ng·h/mL
AUClast, geometric mean (%CV) [13]: 469.7 (63) ng.h/mL
CL/F, individual value(s) [13]: 28.0 L/h and 34.3 L/h
Cmax, geometric mean (%CV) [13]: 39 ng/mL
Tmax, median (range) [13]: 12.0 (6.00–12.0) h
Vz/F, individual value(s) [13]: 163 L and 496 L
t1/2, individual value(s) [13]: 14500 s and 36000 s
AUCinf, geometric mean (%CV) [14]: 687.8 (73) ng.h/mL
AUClast, geometric mean (%CV) [14]: 639.7 (67) ng.h/mL
CL/F, geometric mean (%CV) [14]: 29.05 (73) L/h
Cmax, geometric mean (%CV) [14]: 73.7 ng/mL
Tmax, median (range) [14]: 5.33 (2.00–6.00) h
Vz/F, geometric mean (%CV) [14]: 218.1 (50) L
t1/2, arithmetic mean±standard deviation [14]: 6.778 ± 5.7890 h
Part of dosing interval with mean steady-state PK concentrations above predicted effective concentrations (Ceff) (RDE 25 mg twice daily, Ceff from HCC1428, HCC1806, and Ovar3 models): at least 70 % of the dosing interval
Criterion of concentrations above Ceff for at least 70% of the dosing interval (RDE 25 mg twice daily, Ceff from the MCF7 model): not achieved
Plasma exposures, monotherapy vs combination therapy with fulvestrant or letrozole (in vivo): largely comparable
